In article PMC7144120, “Psoralen Derivatives as Inhibitors of Mycobacterium tuberculosis Proteasome” (Molecules, 2020):
Entries after “also recorded” stand apart in the source; their conditions may differ. Like-named read-outs stand apart in the source and are kept apart here. *1 amine or outer side, *2 acyl side, *3 side chain or, on linkers, in order; H or OH if unused. Where a SMILES comes first, the peptide text is derived from it. The star is where a group is joined. AMC = Cc1cc(=O)oc2cc(N*)ccc12; Suc = O=C(CCC(=O)[*:2])[*:1]

What was measured:
Mtb proteasome [1] = target: T1, Mtb proteasome (Mycobacterium tuberculosis, UniProt P9WHT9); assay type: biochemical; conditions: for Reversibility of inhibition: Mtb proteasome, 100-fold dilution after preincubation; for Reversibility of inhibition at lower concentrations: concentrations ≤ IC50
T1 construct: made in house

Mtb proteasome [2] = target: T1, Mtb proteasome; assay: biochemical; assay type: biochemical; conditions: for IC50: 50 µM Suc-LLVY-AMC, 30 min preincubation, 37 °C, triplicate, read-out: IC50 against the Mtb proteasome; for Hill Coefficient: from IC50 curve, Mtb proteasome
ß5i of IP = conditions: cited from earlier work; for IC50: read-out: IC50 against ß5i of IP; for RA at 10 µM against ß5i of IP: residual activity of β5i in the presence of 10 μM compound
Mtb proteasome [3] = target: T1, Mtb proteasome; assay: Determination of Ki and type of inhibition (varied substrate concentration, GraphPad Prism model fit); assay type: biochemical; conditions: for Ki: best scoring inhibition model; for Type of Inhibition: best ranking model (mixed, competitive, noncompetitive, uncompetitive)
Protocol: The concentrations of 11, 13 and 15 were 0, 0.56, 0.81, 1.15, 1.65, 2.35, 4.80, 9.80 and 20 µM. Further, the concentrations for compound 8 were 0, 1.65, 2.35, 4.80, 9.80 µM and for bortezomib 0, 0.28, 0.40, 0.58, 0.82, 1.18, 2.40, 4.90 and 10 µM. All experiments were performed in triplicate. The resulting data were analyzed using the GraphPad Prism 6 software and were fitted to the software provided models for competitive, noncompetitive, uncompetitive and mixed type enzyme inhibition. The mode of inhibition and Ki values were chosen from the best ranking model, as determined by the software. Representative graphs (Michaelis-Menten, Dixon and Lineweaver-Burk plots) depicting the data fit for the best ranking model of inhibition for all compounds are shown in the Supplementary data (Figures S2–S19).

Mtb proteasome [4] = target: T1, Mtb proteasome; set-up: method as in PMID 16468985; conditions: substrate of Mtb proteasome; read-out: Km (literature value); cited from earlier work
[5] = tested on: Cc1cc(=O)oc2cc(NC(=O)[C@H](Cc3ccc(O)cc3)NC(=O)[C@@H](NC(=O)[C@H](CC(C)C)NC(=O)[C@H](CC(C)C)NC(=O)CCC(=O)O)C(C)C)ccc12; assay: purified protein, by the assay type; conditions: other: substrate of Mtb proteasome, 10 nM enzyme
Protocol: Additionally, the Km of the substrate Suc-LLVY-AMC was calculated based on the initial velocity of the enzymatic reaction using 10 nM Mtb proteasome at various concentration of the substrate (12.5, 25, 50, 100, 250, 500 µM).

T1 sequence (P9WHT9 whole entry, looked up): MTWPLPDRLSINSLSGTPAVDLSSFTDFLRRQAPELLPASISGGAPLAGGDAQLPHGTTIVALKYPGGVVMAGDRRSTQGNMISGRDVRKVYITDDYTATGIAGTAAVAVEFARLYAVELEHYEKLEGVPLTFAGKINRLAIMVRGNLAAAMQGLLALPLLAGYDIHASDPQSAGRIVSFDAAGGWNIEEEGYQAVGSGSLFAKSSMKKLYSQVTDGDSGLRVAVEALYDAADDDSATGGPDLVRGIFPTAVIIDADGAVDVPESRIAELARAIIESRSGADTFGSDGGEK

Compound	IC50 (ß5i of IP) [µM]	RA at 10 µM against ß5i of IP (ß5i of IP) [%]	RA at 100 µM against Mtb (Mtb proteasome [2]) [%]	further results
CC(C)C[C@H](NC(=O)[C@H](Cc1ccccc1)NC(=O)c1cnccn1)B(O)O [Bortezomib, reference compound]	0.004			proteasome activity retained (Mtb proteasome [1]; 5 × IC50 concentration, 0-, 15-, 30- or 60-min preincubation at 25 °C): approximately 55%; Reversibility of inhibition (Mtb proteasome [1]): (Slow) reversible inhibition; Reversibility of inhibition (Mtb proteasome [1]; listed as bortezomib): “slow/partially” reversible; loss of enzyme activity compared to the DMSO control (Mtb proteasome [1]; concentrations equal or higher than IC50, longer preincubation time): ≤ 45%; IC50 (Mtb proteasome [2]): 0.11 ± 0.03 µM; Hill Coefficient (Mtb proteasome [2]): 0.76; α (mixed inhibition model) (Mtb proteasome [3]): 0.85; Ki (Mtb proteasome [3]; Ki): 0.133 µM; Type of Inhibition (Mtb proteasome [3]): Mixed inhibition; Type of Inhibition (Mtb proteasome [3]; listed as bortezomib): mixed type of inhibition
Cc1c(CCC(=O)NCC#N)c(=O)oc2cc3occ(C(C)(C)C)c3cc12 [Compound 8]		100		Reversibility of inhibition (Mtb proteasome [1]): reversible inhibitors; also recorded: Reversible inhibition; IC50 (Mtb proteasome [2]): 3.7 ± 1.5 µM; Hill Coefficient (Mtb proteasome [2]): 1.05; α (mixed inhibition model) (Mtb proteasome [3]): 0.19; Ki (Mtb proteasome [3]; Ki): 5.6 µM; Type of Inhibition (Mtb proteasome [3]): mixed type of inhibition
Cc1c(CCC(=O)ON2C(=O)CCC2=O)c(=O)oc2cc3occ(-c4ccco4)c3cc12 [Compound 11]	0.94			Reversibility of inhibition (Mtb proteasome [1]): partially reversible inhibition; also recorded: (Partially) reversible inhibition; Reversibility of inhibition at lower concentrations (Mtb proteasome [1]): reversible inhibition; IC50 (Mtb proteasome [2]): 8.8 ± 1 µM; Hill Coefficient (Mtb proteasome [2]): 0.90; α (mixed inhibition model) (Mtb proteasome [3]): 6.67; Ki (Mtb proteasome [3]; Ki): 4.2 µM; Type of Inhibition (Mtb proteasome [3]): mixed type of inhibition
Cc1cc(-c2coc3cc4oc(=O)c(CC(=O)ON5C(=O)CCC5=O)c(C)c4cc23)c(C)s1 [Compound 13]	4.4			Reversibility of inhibition (Mtb proteasome [1]): partially reversible inhibition; also recorded: (Partially) reversible inhibition; Reversibility of inhibition at lower concentrations (Mtb proteasome [1]): reversible inhibition; IC50 (Mtb proteasome [2]): 3.2 ± 0.3 µM; Hill Coefficient (Mtb proteasome [2]): 0.90; Ki (Mtb proteasome [3]; Ki): 1.1 µM; Type of Inhibition (Mtb proteasome [3]): mixed type of inhibition
Cc1c(CCC=O)c(=O)oc2cc3c(cc12)C(c1ccccc1)CO3 (stereo not drawn) [Compound 15]				Reversibility of inhibition (Mtb proteasome [1]): reversible inhibitors; also recorded: Reversible inhibition; IC50 (Mtb proteasome [2]): 5.8 ± 2.1 µM; Hill Coefficient (Mtb proteasome [2]): 0.55; α (mixed inhibition model) (Mtb proteasome [3]): 0.22; Type of Inhibition (Mtb proteasome [3]): mixed type of inhibition; Ki (Mtb proteasome [3]; read-out: Ki): 14.9 µM
Cc1c(CC(=O)NCC#N)c(=O)oc2cc3occ(-c4ccc(Br)cc4)c3cc12 [Compound 60]		105	87	
Cc1c(CC(=O)NCC#N)c(=O)oc2cc3occ(C(C)(C)C)c3cc12 [Compound 61]		91	92	
Cc1cc(-c2coc3cc4oc(=O)c(CC(=O)NCC#N)c(C)c4cc23)c(C)s1 [Compound 63]		101	95	
Cc1c(CC(=O)NCC#N)c(=O)oc2cc3occ(-c4ccco4)c3cc12 [Compound 64]		98	91	
Cc1c(CC(=O)NCC#N)c(=O)oc2cc3occ(C4CCCCC4)c3cc12 [Compound 65]		99	91	
Cc1c(CCC(=O)ON2C(=O)CCC2=O)c(=O)oc2cc3occ(-c4ccccc4)c3cc12 [Compound 66]	0.009 ± 0.002		66	
Cc1c(CCC(=O)ON2C(=O)CCC2=O)c(=O)oc2cc3occ(-c4ccc(Br)cc4)c3cc12 [Compound 67]	1.9 ± 0.9		96	
COc1ccc(-c2coc3cc4oc(=O)c(CCC(=O)ON5C(=O)CCC5=O)c(C)c4cc23)cc1 [Compound 68]	0.64 ± 0.13		93	
COc1cccc(-c2coc3cc4oc(=O)c(CCC(=O)ON5C(=O)CCC5=O)c(C)c4cc23)c1 [Compound 69]	0.93 ± 0.57		72	
Cc1c(CCC(=O)ON2C(=O)CCC2=O)c(=O)oc2cc3occ(C(C)(C)C)c3cc12 [Compound 70]		41	70	
Cc1coc2cc3oc(=O)c(CCC(=O)ON4C(=O)CCC4=O)c(C)c3cc12 [Compound 71]		66	97	
Cc1cc(-c2coc3cc4oc(=O)c(CCC(=O)ON5C(=O)CCC5=O)c(C)c4cc23)c(C)s1 [Compound 72]	1.8 ± 0.8		95	
Cc1c(CC(=O)ON2C(=O)CCC2=O)c(=O)oc2cc3occ(-c4ccccc4)c3cc12 [Compound 73]	6.36 ± 0.61		79	

Compound	IC50 (ß5i of IP) [µM]	RA at 10 µM against ß5i of IP (ß5i of IP) [%]	RA at 100 µM against Mtb (Mtb proteasome [2]) [%]	further results
Cc1c(CC(=O)ON2C(=O)CCC2=O)c(=O)oc2cc3occ(-c4ccc(Br)cc4)c3cc12 [Compound 74]		101	61	
Cc1c(CC(=O)ON2C(=O)CCC2=O)c(=O)oc2cc3occ(C(C)(C)C)c3cc12 [Compound 75]		53	88	
Cc1coc2cc3oc(=O)c(CC(=O)ON4C(=O)CCC4=O)c(C)c3cc12 [Compound 76]		101	53	
Cc1c(CC(=O)ON2C(=O)CCC2=O)c(=O)oc2cc3occ(-c4ccco4)c3cc12 [Compound 77]		44	56	
Cc1c(CC(=O)ON2C(=O)CCC2=O)c(=O)oc2cc3occ(C4CCCCC4)c3cc12 [Compound 78]		62	98	
Cc1c(CCC(=O)ON2C(=O)CCC2=O)c(=O)oc2c(C)c3occ(-c4ccccc4)c3cc12 [Compound 79]	3.26 ± 1.49		100	
Cc1c(CNC(=O)CC#N)c(=O)oc2cc3occ(-c4ccccc4)c3cc12 [Compound 81]		101	100	
C=CC(=O)NCc1c(C)c2cc3c(-c4ccccc4)coc3cc2oc1=O [Compound 82]		90	68	
CC=CC(=O)NCc1c(C)c2cc3c(-c4ccccc4)coc3cc2oc1=O [Compound 83]		116	52	
Cc1c(N)c(=O)oc2cc3occ(-c4ccccc4)c3cc12 [Compound 84]		88	100	
Cc1c(NC(=O)CC#N)c(=O)oc2cc3occ(-c4ccccc4)c3cc12 [Compound 85]		115	93	
C=CC(=O)Nc1c(C)c2cc3c(-c4ccccc4)coc3cc2oc1=O [Compound 86]	20.5 ± 1.36		95	
C/C=C/C(=O)Nc1c(C)c2cc3c(-c4ccccc4)coc3cc2oc1=O [Compound 87]		102	93	
Cc1c(-c2nsc(=O)o2)c(=O)oc2cc3occ(-c4ccccc4)c3cc12 [Compound 88]	0.013 ± 0.004		84	
Cc1c(Cc2nsc(=O)o2)c(=O)oc2cc3occ(-c4ccccc4)c3cc12 [Compound 89]	0.12 ± 0.05		65	
Cc1c(CCc2nsc(=O)o2)c(=O)oc2cc3occ(-c4ccccc4)c3cc12 [Compound 90]	0.2 ± 0.04		69	
Cc1cc(=O)oc2cc(NC(=O)[C@H](Cc3ccc(O)cc3)NC(=O)[C@@H](NC(=O)[C@H](CC(C)C)NC(=O)[C@H](CC(C)C)NC(=O)CCC(=O)O)C(C)C)ccc12 [Suc-LLVY-AMC] (Suc-LLVY-{AMC})				Km (Mtb proteasome [4]): 56 ± 15 µM
Mtb proteasome (Mycobacterium tuberculosis H37Rv)				Km [5]: ^aKi determined with GraphPad Prism by fitting the data to several inhibition models (mixed, competitive, noncompetitive, uncompetitive). The best scoring model was further examined by creating Dixon, Lineweaver-Burk and Michaelis-Menten plots. Km for Suc-LLVY-AMC is 60 ± 15 µM (see Supplementary data for details). ND, not determined. ^b The data were calculated as residual activities (RAs) of β5i in the presence of 10 μM of each compound (standard errors for RAs were < 15%). µM
